From patent US8188102B2, “Amide derivative for inhibiting the growth of cancer cells” (Hanmi Holdings Co., Ltd., priority 2007, dated 2012)
Like-named read-outs stand apart in the source and are kept apart here.

What was measured:
[1] = tested on: SK-Br3 breast cancer cell line; assay: Cancer cell growth inhibition, SK-Br3 (SRB); conditions: Homo sapiens, SK-BR-3, 72 h, read-out: ID50 (nM) SK-Br3
[2] = biological target: EGFR (EGFR type 1 kinase, Upstate) (Homo sapiens, UniProt P00533); assay: Inhibition of EGFR enzyme (fluorescence polarization kinase assay)
Sequence of EGFR (EGFR type 1 kinase, Upstate) (P00533 25-1210): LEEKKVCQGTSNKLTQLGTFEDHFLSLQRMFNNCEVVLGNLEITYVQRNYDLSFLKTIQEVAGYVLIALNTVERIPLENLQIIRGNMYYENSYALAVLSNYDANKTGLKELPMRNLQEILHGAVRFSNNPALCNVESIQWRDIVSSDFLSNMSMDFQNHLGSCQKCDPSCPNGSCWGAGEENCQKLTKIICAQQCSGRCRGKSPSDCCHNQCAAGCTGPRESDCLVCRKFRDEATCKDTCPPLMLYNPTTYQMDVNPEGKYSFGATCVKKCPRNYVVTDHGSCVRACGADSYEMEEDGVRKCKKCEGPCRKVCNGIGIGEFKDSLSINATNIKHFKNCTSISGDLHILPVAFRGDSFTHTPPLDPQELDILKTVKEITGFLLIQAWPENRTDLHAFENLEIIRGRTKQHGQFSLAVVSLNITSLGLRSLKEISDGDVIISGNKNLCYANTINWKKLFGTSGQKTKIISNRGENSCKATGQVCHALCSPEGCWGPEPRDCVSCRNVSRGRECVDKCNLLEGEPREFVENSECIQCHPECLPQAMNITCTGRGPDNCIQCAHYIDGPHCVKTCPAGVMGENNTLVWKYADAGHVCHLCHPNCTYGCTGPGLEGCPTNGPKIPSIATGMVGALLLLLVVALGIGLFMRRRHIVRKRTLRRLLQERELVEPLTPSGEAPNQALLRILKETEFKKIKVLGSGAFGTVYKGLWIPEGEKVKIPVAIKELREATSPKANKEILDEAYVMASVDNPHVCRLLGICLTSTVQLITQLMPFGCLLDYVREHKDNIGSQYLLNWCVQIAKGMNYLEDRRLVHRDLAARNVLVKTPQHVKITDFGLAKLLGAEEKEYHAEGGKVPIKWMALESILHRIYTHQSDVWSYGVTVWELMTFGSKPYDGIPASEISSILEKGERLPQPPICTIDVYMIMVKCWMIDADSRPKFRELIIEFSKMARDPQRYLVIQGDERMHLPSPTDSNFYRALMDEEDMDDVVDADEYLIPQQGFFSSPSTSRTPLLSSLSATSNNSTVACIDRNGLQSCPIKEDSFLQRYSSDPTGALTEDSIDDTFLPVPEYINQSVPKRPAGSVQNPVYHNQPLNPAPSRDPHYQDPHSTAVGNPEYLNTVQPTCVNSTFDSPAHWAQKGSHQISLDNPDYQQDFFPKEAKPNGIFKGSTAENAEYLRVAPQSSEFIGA
Procedure: 10 μl of an EGFR (EGFR type 1 kinase, Upstate, 10 ng/μl) was added to each well of a 96-well plate. […] The calculation and analysis of IC50 were carried out by using Microsoft Excel.

[3] = tested on: H1975 lung cancer cell line; assay: Cancer cell growth inhibition, H1975 (celltiter); conditions: Homo sapiens, NCI-H1975, 48 h, read-out: IC50 (nM) H1975
Procedure: The medium was removed from each well of the 96-well plate.
In case of H1975, the cells were diluted with a culture medium to a concentration of 50,000 cells/ml. 100 μl of the diluted cell solution was added to each well of a 96-well plate, and, after 1 day, was washed with a mixture of RPMI, 0.1% FBS and 1% penicillin-streptomycin (PS), followed by replacement of the medium. The plate was allowed to be kept overnight and be treated to various concentrations under the same medium condition for 48 hrs. Similarly to an MTT assay, 15 μl of a celltiter one shot solution (Promega) was added to each well, which was incubated for 2 to 3 hrs, and, then, the absorbance at 490 nm was determined.

EGFR T790M kinase = EGFR T790M kinase (Homo sapiens, UniProt P00533, T790M); assay: Inhibition of EGFR mutant enzyme (T790M)
Sequence of EGFR T790M kinase (P00533 25-1210 T790M): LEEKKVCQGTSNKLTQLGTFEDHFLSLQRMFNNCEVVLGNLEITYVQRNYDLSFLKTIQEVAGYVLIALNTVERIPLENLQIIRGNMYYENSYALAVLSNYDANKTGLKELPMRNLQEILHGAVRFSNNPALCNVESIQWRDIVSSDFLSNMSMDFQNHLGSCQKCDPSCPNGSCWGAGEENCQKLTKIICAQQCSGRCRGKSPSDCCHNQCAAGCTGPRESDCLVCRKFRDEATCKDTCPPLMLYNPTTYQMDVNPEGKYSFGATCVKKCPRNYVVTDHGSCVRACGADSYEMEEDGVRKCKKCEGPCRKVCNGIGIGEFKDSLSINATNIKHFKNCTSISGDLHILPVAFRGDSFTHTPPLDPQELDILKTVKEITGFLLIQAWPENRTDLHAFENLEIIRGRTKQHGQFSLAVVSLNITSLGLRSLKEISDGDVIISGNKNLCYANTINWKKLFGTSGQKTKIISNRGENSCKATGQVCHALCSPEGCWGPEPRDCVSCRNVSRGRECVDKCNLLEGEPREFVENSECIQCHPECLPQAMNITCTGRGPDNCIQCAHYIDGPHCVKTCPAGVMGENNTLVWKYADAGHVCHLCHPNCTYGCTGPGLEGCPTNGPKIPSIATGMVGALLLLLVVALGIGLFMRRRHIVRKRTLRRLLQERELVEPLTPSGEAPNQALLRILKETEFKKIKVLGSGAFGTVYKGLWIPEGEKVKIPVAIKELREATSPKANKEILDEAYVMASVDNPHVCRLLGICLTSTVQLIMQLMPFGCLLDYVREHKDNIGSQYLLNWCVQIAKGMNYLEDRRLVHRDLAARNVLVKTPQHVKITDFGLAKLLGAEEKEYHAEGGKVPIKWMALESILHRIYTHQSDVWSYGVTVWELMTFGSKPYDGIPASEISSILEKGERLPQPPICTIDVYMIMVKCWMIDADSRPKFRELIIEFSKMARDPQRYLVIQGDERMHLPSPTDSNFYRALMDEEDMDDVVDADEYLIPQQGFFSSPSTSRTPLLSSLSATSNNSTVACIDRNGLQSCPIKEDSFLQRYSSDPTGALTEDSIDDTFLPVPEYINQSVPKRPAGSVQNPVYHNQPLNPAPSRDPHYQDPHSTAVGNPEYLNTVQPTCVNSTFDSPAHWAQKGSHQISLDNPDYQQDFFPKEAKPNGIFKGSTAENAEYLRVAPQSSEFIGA

[4] = tested on: SW-620 colon/rectal cancer cell line; assay: Cancer cell growth inhibition, SW-620 (SRB); conditions: Homo sapiens, SW-620, 72 h, read-out: IC50 (nM) SW-620
[5] = tested on: A431 skin cancer cell line; assay: Cancer cell growth inhibition, A431 (SRB); conditions: Homo sapiens, A-431, 72 h, read-out: ID50 (nM) A431
EGFR = biological target: T1, EGFR (Homo sapiens, UniProt P00533); assay: Prolongation study in A431 cells (EGFR phosphorylation inhibition); format: cell-based; conditions: A-431, 1 μM for 4 hrs, then washed, EGF 100 ng/ml
T1 construct: A skin cancer cell line, A431 (ATCC: CRL-1555), was used; endogenous in cells; host or cells: A431 (ATCC: CRL-1555)
T1 sequence (P00533 25-1210): as the sequence (P00533 25-1210) above
Procedure: A skin cancer cell line, A431 (ATCC: CRL-1555), was used to test the degrees of the inventive compounds in inhibiting EGFR's phosphorylation and the prolongation of ability to inhibit it thereof.
The cell line was incubated in a culture flask at 37° C. under 95% air and 5% CO2 using a culture medium containing DMEM, 10% FBS and 1% PS. When more than 90% of the total volume of the culture flask became filled with cells, the cultured cell solution was subject to secondary incubation and was poured to each well of a 6-well plate to the extent of 500,000 cells/well. After 24 hrs, the cells were separated from the solution, washed with PBS, and incubated in a culture medium containing DMEM, 0.1% FBS and 1% PS for 16 hrs. The compounds obtained in Examples 1, 17, 19 and 36, and Tarceva as EGFR phosphorylation inhibitors were each added to the cell-containing well to a concentration of 1 μM. After 4 hrs, the cells were separated from the solution, washed 4 times with PBS after every 0, 2, 4 and 8 hrs, and incubated in a culture medium containing DMEM, 0.1% FBS and 1% PS. […] Just before the completion of the reaction, the cultured cell solution was treated with a 100 ng/ml concentration of EGF (Sigma, Cat No. E9644) for 5 mins to induce the activation of EGFR. After the completion of the reaction, the well plate holding the cultured cells was stored at −70° C. In control groups, the replacement of the medium was performed instead of the addition of the EGFR phosphorylation inhibitor, wherein the induction of EGFR activation using EGF was made only in a positive control group and not made in a negative control group.
For Western blot and enzyme immune measuring (ELISA) methods, the well plate stored at −70° C. was allowed to melt to room temperature, and then protein was extracted from the cells in the well plate using a protein extract buffer. The extraction of the protein was performed as follows: 250 μl of the protein extract buffer (Phosphosafe extraction reagent, Calbiochem, Cat No. 71296-3) comprising protease inhibitor cocktail was added to each cell-containing well, which was stirred at room temperature for 5 mins. The cells were collected using a cell scraper and put in an 1.5 ml tube, which was centrifuged at a speed of 16,000×g for 5 mins. The upper layer thus obtained was separated, of which the protein content was determined by a protein assay kit (Bio-rad, Cat No. 500-0116). The protein extracted was diluted with PBS to a concentration of 0.8 mg/ml.
A human EGFR (py1173) immunoassay kit (Biosource, Cat No. KHR9071) was used in the enzyme immune measuring method. 100 μl of the sample which was diluted by 4 folds with a standard dilution buffer in a kit was added to a strip well, which was incubated at a 4° C. refrigerator overnight. The cultured cells was separated therefrom and washed 4 times with 200 μl of a washing buffer. 100 μl of the resulting primary antibody (anti-human EGFR [pY1173]) was put to each strip well, incubated at 37° C. for 1 hr, and washed 4 times with 200 μl of a washing buffer. The resulting secondary antibody (anti-rabbit IgG-HRP) was diluted by 100 folds with an HRP dilution buffer in a kit. 100 μl of the dilute was put to each strip well, incubated at 37° C. for 30 mins, and washed 4 times with 200 μl of the washing buffer. 100 μl of an HRP substrate in a kit was put to each strip well and incubated in a darkroom for 10 to 30 mins. 100 μl of a reaction stop solution was added thereto to terminate the reaction, and then, the absorbance at 450 nm was observed.
Electrophoresis and Western blot methods were conducted based on the conventional methods in the following: An LDS buffer was added to each sample, which was allowed to boil at 70° C. for 10 mins. 10 μl of the resulting solution was loaded to a 12-well gel (Nupage 4˜12% Bis-tris gel, Invitrogen), followed by 120 volt-electrophoresis in a buffer (MOPS electrophoresis buffer, Invitrogen, Cat No. NP0006-1) for 2 hrs. […]

[6] = read-out: IC50 (nM) EGFR, EGFR type 1 kinase, ATP 50 μM
[7] = read-out: IC50 (nM) T790M, EGFR T790M kinase
[8] = 0 hr after washing, read-out: EGFR phosphorylation inhibition in A431 cell line (%) 0 hr Avg.
[9] = 8 hrs after washing, read-out: EGFR phosphorylation inhibition in A431 cell line (%) 8 hrs Avg.
[10] = 24 hrs after washing, read-out: EGFR phosphorylation inhibition in A431 cell line (%) 24 hrs Avg.
[11] = 48 hrs after washing, read-out: EGFR phosphorylation inhibition in A431 cell line (%) 48 hrs Avg.

IC50 (EGFR T790M kinase) | IC50 [2] | inhibition at 1 µM (EGFR; [8]) | inhibition at 1 µM (EGFR; [9]) | inhibition at 1 µM (EGFR; [10]) | inhibition at 1 µM (EGFR; [11]) | inhibition at 1 µM (EGFR; 72 hrs after washing, read-out: EGFR phosphorylation inhibition in A431 cell line (%) 72 hrs Avg.) | SMILES | IC50 [1] | IC50 [2, 6] | IC50 [3] | IC50 (EGFR T790M kinase; [7]) | IC50 [4] | IC50 [5]
– | – | – | – | – | – | – | C=CC(=O)N1CC[C@@H](Oc2cc3c(Nc4ccc(F)c(Cl)c4F)ncnc3cc2OC)C[C@@H]1C(=O)OC [Example 133, (2R,4R)-methyl 1-acryloyl-4-(4-(3-chloro-2,4-difluorophenylamino)-7-methoxyquinazolin-6-yloxy)piperidin-2-carboxylate] | 0.2 nM | 4.4 nM | 5.4 nM | 1.7 nM | > 5000 nM | 0.7 nM
– | – | – | – | – | – | – | C=CC(=O)N1CC(Oc2cc3c(N[C@H](C)c4ccccc4)ncnc3cc2OC)C1 [Example 22, (R)-1-(3-(7-methoxy-4-(1-phenylethylamino)quinazolin-6-yloxy)azetidin-1-yl)pro-2-pen-1-one] | 1 nM | 6 nM | 156 nM | 15 nM | – | 7 nM
3 nM | – | – | – | – | – | – | C=CC(=O)N1CCC(Oc2cc3c(Nc4ccc(F)c(Cl)c4F)ncnc3cc2OCCOC)CC1 [Example 117, 1-(4-(4-(3-Chloro-2,4-difluorophenylamino)-7-(2-methoxyethoxy)quinazolin-6-yloxy)piperidin-1-yl)prop-2-en-1-one] | 1.4 nM | 0.7 nM | 47 nM | – | > 5000 nM | 4 nM
– | – | – | – | – | – | – | C=CC(=O)N1CC(Oc2cc3c(Nc4cccc(Cl)c4)ncnc3cc2OC)C1 [Example 26, 1-(3-(4-(3-chlorophenylamino)-7-methoxyquinazolin-6-yloxy)azetidin-1-yl)pro-2-pen-1-one] | 6 nM | 1.6 nM | 17.7 nM | 3.3 nM | > 5000 nM | 1.6 nM
24 nM | 2.7 nM | – | – | – | – | – | C=CC(=O)N1CCC(Oc2ccc3ncnc(Nc4ccc(F)c(Cl)c4F)c3c2)CC1 [Example 71, 1-(4-(4-(3-chloro-2,4-difluorophenylamino)quinazolin-6-yloxy)piperidin-1-yl)pro-2-pen-1-one] | 5 nM | – | 70 nM | – | – | 8 nM
– | – | – | – | – | – | – | C=CC(=O)N1CC[C@H](Oc2ccc3ncnc(Nc4ccc(OCc5cccc(F)c5)c(Cl)c4)c3c2)C1 [Example 16, 1-((3S)-3-(4-(3-chloro-4-(3-fluorobenzyloxy)phenylamino)quinazolin-6-yloxy)pyrrolidin-1-yl)pro-2-pen-1-one] | 7 nM | 8 nM | – | 47 nM | > 5000 nM | 15 nM
– | – | – | – | – | – | – | C=CC(=O)N1CC[C@H](Oc2cc3c(Nc4ccc(F)c(Cl)c4F)ncnc3cc2OC)C[C@H]1C(N)=O [Example 120, (2S,4S)-1-acryloyl-4-(4-(3-chloro-2,4-difluorophenylamino)-7-methoxyquinazolin-6-yloxy)piperidin-2-carboxamide] | 1.3 nM | 1.4 nM | 5.2 nM | 0.7 nM | > 5000 nM | 3 nM
– | – | – | – | – | – | – | C=CC(=O)N1CC[C@H](Oc2cc3c(N[C@H](C)c4ccccc4)ncnc3cc2OC)C1 [Example 11] | 13 nM | 12 nM | 167 nM | 27 nM | – | 8 nM
– | – | – | – | – | – | – | C=CC(=O)N1CC[C@H](Oc2ccc3ncnc(Nc4ccc(F)c(Cl)c4F)c3c2)C1 [Example 15, 1-((3S)-3-(4-(3-chloro-2,4-difluorophenylamino)quinazolin-6-yloxy)pyrrolidin-1-yl)pro-2-pen-1-one] | 25 nM | 9 nM | 413 nM | 54 nM | – | 5 nM
– | – | – | – | – | – | – | C=CC(=O)N1CC(Oc2cc3c(Nc4cccc(Cl)c4F)ncnc3cc2OC)C1 [Example 23, 1-(3-(4-(3-chloro-2-fluorophenylamino)-7-methoxyquinazolin-6-yloxy)azetidin-1-yl)pro-2-pen-1-one] | 0.5 nM | 6 nM | 9 nM | 4 nM | > 5000 nM | 1.6 nM
– | – | 90% | 89% | 81% | 41% | 44% | C=CC(=O)N1CCC(Oc2cc3c(Nc4ccc(Cl)c(Cl)c4F)ncnc3cc2OC)CC1 [Example 36, 1-(4-(4-(3,4-dichloro-2-fluorophenylamino)-7-methoxyquinazolin-6-yloxy)piperidin-1-yl)pro-2-pen-1-one] | 0.3 nM | – | – | – | > 5000 nM | –
– | – | 71% | 71% | 73% | 42% | – | C=CC(=O)N1CC[C@H](Oc2cc3c(Nc4ccc(F)c(Cl)c4F)ncnc3cc2OC)C1 [Example 1, 1-((3S)-3-(4-(3-chloro-2,4-difluorophenylamino)-7-methoxyquinazolin-6-yloxy)pyrrolidin-1-yl)prop-2-en-1-one] | 8 nM | – | 80 nM | – | > 5000 nM | 4 nM
– | – | – | – | – | – | – | C=CC(=O)N1CC[C@H](Oc2cc3c(Nc4ccc(Br)c(Cl)c4F)ncnc3cc2OC)C1 [Example 7, 1-((3S)-3-(4-(4-bromo-3-chloro-2-fluorophenylamino)-7-methoxyquinazolin-6-yloxy)pyrrolidin-1-yl)pro-2-pen-1-one] | 8 nM | 10 nM | 55 nM | 8 nM | > 5000 nM | 5 nM
– | – | – | – | – | – | – | C=CC(=O)N1CC[C@H](Oc2cc3c(Nc4ccc(OCc5ccccn5)c(Cl)c4)ncnc3cc2OC)C1 [Example 10, 1-((3S)-3-(4-(3-chloro-4-(pyridin-2-ylmethoxy)phenylamino)-7-methoxyquinazolin-6-yloxy)pyrrolidin-1-yl)pro-2-pen-1-one] | 7 nM | 5 nM | – | 10 nM | > 5000 nM | 14 nM
